Series [1] concerns Trichophyton rubrum ATCC 18762. In words: In vitro susceptibility, microdilution broth MIC, T. rubrum. The format is cell-based. Particulars: ATCC18762, 120 h, Table 1a, Sabouraud's broth, 30° C., 5 days. How it is done: (§1) MIC tests were performed by a microdilution broth assay. The fungi tested were Candida albicans ATCC 10259 and strain B311, Cryptococcus neoformans ATCC 36556, Aspergillus fumigatus ATCC 13073, and Trichophyton rubrum ATCC 18762. The yeasts were propagated on yeast morphology agar, while the filamentous fungi were grown on Sabouraud's agar. All tests were performed in Sabouraud's broth in 96-well microliter plates, with compounds diluted serially, then inoculated with 2×10^4 cfu/ml for C. albicans, 4×10^4 cfu/ml for C. neoformans, 1×10^3 cfu/ml for A. fumigatus, and 1×10^3 cfu/ml for T. rubrum (all expressed as final concentrations). Plates were incubated at 30° C. for 48 h for all fungi except T. rubrum, which was incubated for 5 days. MIC's were read as the lowest concentration completely inhibiting growth. After MIC endpoints were determined, 50 ul portions were removed and plated on yeast morphology agar to detect viable organisms, and were incubated at 30° C. for 48 h. The MFC was determined to be the well with the lowest concentration resulting in no growth.
(Broth dilution looks for growth in wells or tubes with falling amounts of substance.)

Series [2] has as its system fungi. As to the kind of experiment: In vitro susceptibility tests (MIC and MFC), overall statements. The note with it: Candida, Cryptococcus, Aspergillus, medically important fungi. Format: cell-based. How it is done:
as §1

The test system of series [3] is Candida albicans strain B311. In words: In vitro susceptibility, microdilution broth MIC, C. albicans B311. Format: cell-based. The note with it: Table 1a, Sabouraud's broth, 30° C., 48 h. How it is done:
as §1

The test system of series [4] is Aspergillus fumigatus ATCC 13073. In words: In vitro susceptibility, microdilution broth MIC, A. fumigatus. Format: cell-based. The note with it: ATCC13073, 48 h. How it is done:
as §1

The subject of series [5] is Candida albicans ATCC 10259. As to the kind of experiment: In vitro susceptibility, microdilution broth MIC, C. albicans ATCC 10259. The format is cell-based. Particulars: ATCC10259, 48 h. How it is done: as §1
For series [6], the system named is Candida albicans ATCC 10259. In words: Minimum fungicidal concentration (MFC), C. albicans ATCC 10259. The note with it: ATCC10259, 48 h, read-out: MIC (as headed), C. albicans 10259 (MFC). The format is cell-based. How it is done:
as §1

The subject of series [7] is Cryptococcus neoformans ATCC 36556. In words: In vitro susceptibility, microdilution broth MIC, C. neoformans. The format is cell-based. Particulars: ATCC36556, 48 h. How it is done: as §1
The test system of series [8] is Candida albicans strain B311. In words: Minimum fungicidal concentration (MFC), C. albicans B311. The format is cell-based. The note with it: B311, 48 h, Table 1a, seventh value column, read-out: MIC (as headed), C. albicans B311 (MFC). How it is done: as §1
A short description of series [9]: Systemic toxicology test in ICR mice, intraperitoneal. Format: in vivo. The note with it: mouse, in vivo, ip. How it is done: (§2) Thiarubrine A and the novel 3,6-bis(hydroxymethyl)-1,2-dithiin have also been evaluated for their systemic toxicity potential. ICR mice, in groups of five or six each were injected with solutions of the test compound given intraperitoneally for three consecutive days for thiarubrine A and five consecutive days for the 1,2-dithiin. Animals were weighed daily and observed for mortalities over a 14 day period. An LD50 of 0.6 mg/kg for thiarubrine A was determined.

The subject of series [10] is ICR mice. Described as above. The format is in vivo. Particulars: three consecutive days. How it is done:
as §2

The conditions of series [11]: isolated from Aspilia mossambicesis and A. plurisetta; literature; cited from earlier work.
Series [12] relates to dermal irritation and erythema, ear of ICR mice. As to the kind of experiment: Dermal toxicology (irritation) test in ICR mice. The format is in vivo. The note with it: 10 mg topically. How it is done: Thiarubrine A and a new 1,2-dithiin compound 3,6-bis(hydroxymethyl)-1,2-dithiin were tested for the ability to elicit dermal irritation in ICR mice. Animals in groups of five each were lightly anesthetized, then the test substance, previously dissolved in aquaphor, was applied in the amount of 10 mg topically to the dorsal aspect of the right ear. Aquaphor without test substance was applied to the left ear as a control. Animals were inspected daily for five days for signs of dermal irritation and erythema, which was scored subjectively on a scale from 1 to 15, with 15 indicating severe toxicity.

Where [13] appears, read: Table 1a, Sabouraud's broth, 30° C., read-out: MIC A. fumigatus.
Setting [14] is: Table 1b, Sabouraud's broth, 30° C., read-out: MIC A. fumigatus.
The mark [15] stands for this setting: Table 1a, Sabouraud's broth, 30° C., read-out: MIC C. albicans 10259.
[16] abbreviates: Table 1b, Sabouraud's broth, 30° C., read-out: MIC C. albicans 10259.
Where [17] appears, read: Table 1a, Sabouraud's broth, 30° C., read-out: MIC C. neoformans.
Where [18] appears, read: Table 1b, Sabouraud's broth, 30° C., read-out: MIC C. neoformans.

In brackets after ≈: the same amount, converted by molar mass. Read-outs that look alike come from different tables or passages of the source.

The MIC is the lowest concentration that inhibits growth of the organism. In general, MFC refers to the lowest tested concentration that kills the fungus rather than only halting it. As to `OCC1=CC=C(CO)SS1` [Dithiin A, 3,6-Bis(hydroxymethyl)-1,2-dithiin], the MIC in series [1] came out at 16 µg/mL (≈ 90.8 µM); in [3], 31 µg/mL (≈ 176 µM); in [4] (setting [13]), 16 µg/mL (≈ 90.8 µM); in series [4] (setting [14]) it was 6.3 µg/mL (≈ 35.7 µM); in series [5] (setting [15]), 16 µg/mL (≈ 90.8 µM); in series [5] (setting [16]), 25 µg/mL (≈ 142 µM). The figures for the MIC in series [7] (setting [17]) and in [7] (setting [18]) were 2 µg/mL (≈ 11.3 µM) and 1.6 µg/mL (≈ 9.08 µM), respectively. Also, the “In vitro antifungal activity (in words)” value in [2] is given as “potent broad spectrum antifungal activity”. Moreover, in series [6] (Table 1a), the minimal fungicidal concentration (MFC) stood at 63 µg/mL (≈ 357 µM).

As for `CC(=O)OCC1=CC=C(COC(C)=O)SS1` [Dithiin B, 3,6-Bis(acetyloxymethyl)-1,2-dithiin], the minimum inhibitory concentration (MIC) is 0.4 µg/mL (≈ 1.54 µM) in series [4] (setting [13]); 0.2 µg/mL (≈ 0.768 µM) in series [4] (setting [14]); 3.1 µg/mL (≈ 11.9 µM) in [5] (setting [15]); 3.1 µg/mL (≈ 11.9 µM) in series [5] (setting [16]); 0.8 µg/mL (≈ 3.07 µM) in series [7] (setting [17]); 0.8 µg/mL (≈ 3.07 µM) in [7] (setting [18]). In [6] (Table 1a), the MFC came to 6.3 µg/mL (≈ 24.2 µM).

As to `CC1=CC=C(CO)SS1` [Dithiin C], the minimum inhibitory concentration (MIC) in series [5] (setting [15]) was found to be 12.5 µg/mL (≈ 78 µM).

For `COCOCC1=CC=C(COCOC)SS1` [Dithiin D], the MIC in series [1] is 8 µg/mL (≈ 30.3 µM); in series [3] it was 125 µg/mL (≈ 473 µM); in series [4] (setting [13]), 63 µg/mL (≈ 238 µM); in series [5] (setting [15]), 31 µg/mL (≈ 117 µM); in series [7] (setting [17]), 8 µg/mL (≈ 30.3 µM). For the same compound, the MFC is above 250 µg/mL in series [6] (Table 1a) and 125 µg/mL (≈ 473 µM) in [8].

`O=CC1=CC=C(C=O)SS1` [Dithiin E, 3,6-Diformyl-1,2-dithiin]: the MIC in series [1] was determined as 4 µg/mL (≈ 23.2 µM); in [3], 8 µg/mL (≈ 46.4 µM); in series [4] (setting [13]), 8 µg/mL (≈ 46.4 µM); in series [5] (setting [15]) it was 8 µg/mL (≈ 46.4 µM); in series [7] (setting [17]) it was 4 µg/mL (≈ 23.2 µM). Further, the MFC in series [6] (Table 1a) and in series [8] was 8 µg/mL (≈ 46.4 µM) each time.

As for `CCC(=O)OCC1=CC=C(COC(=O)CC)SS1` [Dithiin G, 3,6-Bis(propionyloxymethyl)-1,2-dithiin], the MIC in [4] (setting [14]) amounted to 3.1 µg/mL (≈ 10.7 µM); in series [5] (setting [16]), 12.5 µg/mL (≈ 43.3 µM); in [7] (setting [18]) it was 6.3 µg/mL (≈ 21.8 µM).

For the compound `CC(C)C(=O)OCC1=CC=C(COC(=O)C(C)C)SS1` [Dithiin H, 3,6-Bis(isobutyryloxymethyl)-1,2-Dithiin], the minimal inhibitory concentration (MIC) in series [4] (setting [14]), in [5] (setting [16]) and in [7] (setting [18]) was above 100 µg/mL in each case.

Consider `O=C(OCC1=CC=C(COC(=O)C2CC2)SS1)C1CC1` [Dithiin I, 3,6-Bis(cyolopropanecarbonyloxymethyl)-1,2-dithiin], for which the minimal inhibitory concentration (MIC) was 1.6 µg/mL (≈ 5.12 µM) in series [4] (setting [14]), 6.3 µg/mL (≈ 20.2 µM) in series [5] (setting [16]) and 3.1 µg/mL (≈ 9.92 µM) in series [7] (setting [18]).

For the compound `O=C(OCC1=CC=C(CO)SS1)C1CC1` [Dithiin J], the MIC in [4] (setting [14]) is 0.8 µg/mL (≈ 3.27 µM); in series [5] (setting [16]), 3.1 µg/mL (≈ 12.7 µM); in [7] (setting [18]), 1.6 µg/mL (≈ 6.55 µM).

One may read the LD50 as the dose expected to kill half of the subjects tested. For `C=CC#CC#CC1=CC=C(C#CC)SS1` [Thia A, thiarubrine A], the MIC in series [4] (read-out: MIC A. fumigatus, Table 1a, Sabouraud's broth, 30° C.) is 0.15 µg/mL (≈ 0.657 µM); in series [4] (read-out: MIC A. fumigatus, Table 1b, Sabouraud's broth, 30° C.), 0.1 µg/mL (≈ 0.438 µM); in series [5] (read-out: MIC C. albicans 10259, Table 1a, Sabouraud's broth, 30° C.), 0.15 µg/mL (≈ 0.657 µM); in series [5] (read-out: MIC C. albicans 10259, Table 1b, Sabouraud's broth, 30° C.), 0.39 µg/mL (≈ 1.71 µM); in series [7] (read-out: MIC C. neoformans, Table 1a, Sabouraud's broth, 30° C.), 0.61 µg/mL (≈ 2.67 µM); in series [7] (read-out: MIC C. neoformans, Table 1b, Sabouraud's broth, 30° C.), 0.78 µg/mL (≈ 3.42 µM). Further, the minimum fungicidal concentration (MFC) in [6] was 0.3 µg/mL (≈ 1.31 µM). For the same compound, the 50% lethal dose (LD50) at 336 h in series [9] (three consecutive days, 14 day observation, read-out: LD50) is 0.6 mg/kg; in [9] (total dose over three days, read-out: LD50, total dose), around 1.8 mg/kg. The “Systemic toxicity (in words)” value in series [10] was “highly toxic”. In addition, the “Biological activity (in words)” value in [11] is “wide spectrum of biological activity including antiviral and antibiotic activities”. In series [12] (five days), the “Dermal irritation and erythema” value is recorded as “pronounced toxicity”. In series [12] (Day 3, scale 1 to 15), the “Average score for dermal irritation, treated ear, Day 3” value is on record as 7. Besides, the “Average score for dermal irritation, treated ear, Day 4” value in [12] (Day 4, scale 1 to 15) was found to be 9. Besides, in series [12] (Day 5, scale 1 to 15, control ear 4), the “Average score for dermal irritation, treated ear, Day 5” value was 9. In addition, the “Average score for dermal irritation, treated ear, Day 2” value worked out at 4 in [12] (first column pair of Table 2, headed Day 2, scale 1 to 15) and 6 in series [12] (second column pair of Table 2, headed Day 2, scale 1 to 15).

Take `C=CC#CC1=CC=C(C#CC#CC)SS1` [thiarubrine B]: the “Biological activity (in words)” value in [11] was “wide spectrum of biological activity including antiviral and antibiotic activities”.

Source of the values: patent publication US5668168A, “1,2-dithiin antiinfective agents” (Shaman Pharmaceuticals, Inc., priority 1995, dated 1997).
